Assay results reported in patent US5298626A, “Select cyclopent[b]indoles” (priority 1992, dated 1994).
“And” between values parts separate entries of the source, which are not always exact repeats. Identical values can stand only once. Like-named read-outs stand apart in the source and are kept apart here.

Tests used:
[1] = system: Scopolamine Induced Memory Deficit; type: in vivo, mice
Method: In this assay mice are tested for their ability to remember an unpleasant stimulus for a period of 24 hours. A mouse is placed in a chamber that contains a dark compartment; a strong incandescent light drives it to the dark compartment, where an electric shock is administered through metal plates on the floor. The animal is removed from the testing apparatus and tested again, 24 hours later, for the ability to remember the electric shock.
If scopolamine, an anticholinergic that is known to cause memory impairment, is administered before an animal's initial exposure to the test chamber, the animal re-enters the dark compartment shortly after being placed in the test chamber 24 hours later. This effect of scopolamine is blocked by an active test compound, resulting in a greater interval before re-entry into the dark compartment.
The results for an active compound are expressed as the percent of a group of animals in which the effect of scopolamine is blocked, as manifested by an increased interval between being placed in the test chamber and re-entering the dark compartment.

[2] = target: T1, MAO-A (Rattus norvegicus, UniProt P21396); experiment: biochemical; design: species or system rat (male Wistar)
T1 construct: served as the tissue source for mitochondrial MAO; from tissue; host or cells: whole brain minus cerebellum of male Wistar rats, P2 pellet (18,000 g)
T1 sequence (P21396 1-526): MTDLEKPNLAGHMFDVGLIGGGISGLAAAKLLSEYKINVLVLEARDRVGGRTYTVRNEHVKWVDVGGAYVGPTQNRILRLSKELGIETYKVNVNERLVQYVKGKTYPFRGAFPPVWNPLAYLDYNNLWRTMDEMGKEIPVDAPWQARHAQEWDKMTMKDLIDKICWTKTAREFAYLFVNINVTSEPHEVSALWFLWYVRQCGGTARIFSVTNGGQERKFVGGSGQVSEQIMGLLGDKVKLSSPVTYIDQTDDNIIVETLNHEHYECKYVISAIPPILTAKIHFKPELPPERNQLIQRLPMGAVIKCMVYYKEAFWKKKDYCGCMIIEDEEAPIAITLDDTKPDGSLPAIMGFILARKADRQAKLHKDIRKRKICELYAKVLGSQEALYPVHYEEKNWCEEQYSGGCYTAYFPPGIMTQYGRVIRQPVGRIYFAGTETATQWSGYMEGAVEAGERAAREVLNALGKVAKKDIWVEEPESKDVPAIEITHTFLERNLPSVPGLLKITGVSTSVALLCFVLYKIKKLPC
Method: Inhibition of Type A and Type B Monoamine Oxidase
Activity in Rat Brain Synaptosomes
(§1) To determine the selective inhibition of the two forms of monoamine oxidase (MAO).
Although various methods for measuring MAO activity are available, the described method involves the extraction of the radiolabeled deaminated metabolites of [^3 H]-5HT or [^14 C]-β-phenethylamine.
a. Serotonin creatine SO4 (5HT) is obtained from Sigma Chemical Company. A 5 mM stock solution is made up in 0.01N HCl. This is used to dilute the specific activity of the [^3 H]-5HT. b. [^3 H]-5-Hydroxytryptamine binoxalate (20-30 Ci/mmol) is obtained from New England Nuclear. c. Add 12 μl of [^3 H]-5HT to 2 ml of the 5 mM 5HT solution. (Final amine concentration in the assay is 200 μM: see below.)
5. Equal amounts of MAO-A (5HT) and MAO-B (PEA) substrates are combined for simultaneously testing both MAO types, i.e. mixed stock solution of 2.5 mM 5HT and 2.5 mM PEA, 40 μl of this mixed solution gives a 200 μM final concentration of each amine in the assay. When testing only one MAO type, the individual 5 mM stock solutions must be diluted 1: 1 with distilled water prior to adding 40 μl to the incubation mixture; i.e., same 200 μM final amine concentration.
(§2) Male Wistar rats weighting 15-250 grams were sacrificed an removed. Whole brain minus cerebellum was homogenized in 30 volumes of ice-cold, phosphate-buffered 0.25M sucrose, using a Potter-Elvejhem homogenizer. The homogenate as centrifuged at 1000 g for 10 minutes and the supernatant (S1) decanted and recentifuged at 18,000 g for 20 minutes. […]
(§3) Tubes are preincubated for 15 minutes at 37° C. and the assay is started by adding 40 μl of combined substrate ([^3 H]-5HT and [^14 C]-PEA) at 15 second intervals. […] Tissue blank values are determined by adding the acid before the radioactive substrate. […] 10 ml of Liquiscint is added and the samples are counted using window settings for in ^14 C in one channel and ^3 H in the second channel. IC50 values are determined by log-probit analysis.

[3] = target: T2, MAO-B (Rattus norvegicus, UniProt P19643); experiment: biochemical; design: species or system rat (male Wistar)
T2 construct: served as the tissue source for mitochondrial MAO; from tissue; host or cells: whole brain minus cerebellum of male Wistar rats, P2 pellet (18,000 g)
T2 sequence (P19643 1-520): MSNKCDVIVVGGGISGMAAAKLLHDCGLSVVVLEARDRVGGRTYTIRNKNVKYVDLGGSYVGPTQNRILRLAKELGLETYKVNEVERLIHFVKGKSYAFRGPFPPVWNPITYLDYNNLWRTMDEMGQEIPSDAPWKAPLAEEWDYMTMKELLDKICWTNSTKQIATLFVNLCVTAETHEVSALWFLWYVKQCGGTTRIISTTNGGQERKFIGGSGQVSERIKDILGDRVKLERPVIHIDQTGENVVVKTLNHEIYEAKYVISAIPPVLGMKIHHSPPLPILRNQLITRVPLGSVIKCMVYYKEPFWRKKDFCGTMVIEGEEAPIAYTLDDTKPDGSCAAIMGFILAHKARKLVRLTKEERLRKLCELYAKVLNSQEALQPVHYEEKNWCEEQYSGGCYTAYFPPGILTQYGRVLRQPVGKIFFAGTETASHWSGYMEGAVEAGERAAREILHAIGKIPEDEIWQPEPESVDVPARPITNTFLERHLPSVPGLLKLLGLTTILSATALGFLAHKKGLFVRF
Method: Activity in Rat Brain Synaptosomes
as §1
Although various methods for measuring MAO activity are available, the described method involves the extraction of the radiolabeled deaminated metabolites of [^3 H]-5HT or [^14 C]-β-phenethylamine. This procedure allows MAO-A and MAO-B activities to be measured either simultaneously or individually (3).
A 5 mM stock solution is made up in 0.01N HCl. This is used to dilute the specific activity of the [^14 C]-PEA. b. β-[ethyl-1-^14 C]-phenethylaminehydrochloride(40-50 mCi/mmol) is obtained from New England Nuclear. c. Add 12 μl of [^14 C]-PEA to 2 ml of the 5 mM PEA solution. (Final amine concentration in the assay is 200 μM: see below.)
Equal amounts of MAO-A (5HT) and MAO-B (PEA) substrates are combined for simultaneously testing both MAO types, i.e. mixed stock solution of 2.5 mM 5HT and 2.5 mM PEA, 40 μl of this mixed solution gives a 200 μM final concentration of each amine in the assay. When testing only one MAO type, the individual 5 mM stock solutions must be diluted 1: 1 with distilled water prior to adding 40 μl to the incubation mixture; i.e., same 200 μM final amine concentration.
as §2, §3

[4] = target: T3, Brain AChE (acetylcholinesterase) (Rattus norvegicus, UniProt P37136); experiment: biochemical; design: species or system rat (male Wistar); conditions: rat striatum, read-out: Inhibitory Concentration, IC50
T3 construct: corpora striata dissected free, weighed and homogenized in 19 volumes; from tissue; host or cells: corpora striata of male Wistar rats, whole homogenate
T3 sequence (P37136 32-614): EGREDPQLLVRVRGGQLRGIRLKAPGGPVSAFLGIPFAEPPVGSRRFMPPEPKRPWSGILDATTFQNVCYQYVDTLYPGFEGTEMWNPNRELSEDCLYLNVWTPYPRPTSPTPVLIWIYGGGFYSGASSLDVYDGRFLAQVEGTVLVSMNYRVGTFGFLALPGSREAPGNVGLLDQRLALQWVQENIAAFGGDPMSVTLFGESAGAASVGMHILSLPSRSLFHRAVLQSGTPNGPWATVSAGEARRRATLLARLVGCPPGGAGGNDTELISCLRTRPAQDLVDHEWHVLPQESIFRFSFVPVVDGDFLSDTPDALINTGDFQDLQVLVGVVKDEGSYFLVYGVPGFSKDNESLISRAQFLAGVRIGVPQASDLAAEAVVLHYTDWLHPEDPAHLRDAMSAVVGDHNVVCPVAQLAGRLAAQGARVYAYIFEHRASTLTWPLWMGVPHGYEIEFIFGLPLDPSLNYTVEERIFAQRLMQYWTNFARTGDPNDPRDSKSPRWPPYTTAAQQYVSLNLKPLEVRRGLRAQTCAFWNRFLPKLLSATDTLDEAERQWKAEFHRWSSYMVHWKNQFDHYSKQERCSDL
Method: Cholinesterases are found throughout the body, both in the brain and in serum.
In Vitro Inhibition of Acetylcholinesterase Activity in Rat Striatum
The method described below was used in this invention for assaying cholinesterase activity. This is a modification of the method of Ellman et al., Biochem. Pharmacol. 7, 88 (1961).
1. 0.05M Phosphate buffer, pH 7.2
4. A 2 mM stock solution of the test drug is made up in a suitable solvent and q.s. to volume with 0.5 mM DTNB (reagent 3). […] If active, IC50 values are determined from the inhibitory activity of subsequent concentrations.
Male Wistar rats are decapitated, brains rapidly removed, corpora striata dissected free, weighed and homogenized in 19 volumes (approximately 7 mg protein/ml) of 0.05M phosphate buffer, pH 7.2 using a Potter-Elvehjem homogenizer.
Enzyme activity is measured with the Beckman DU-50 spectrophotometer. This method can be used for IC50 determinations and for measuring kinetic constants.
Blank values are determined for each run to control for non-enzymatic hydrolysis of substrate and these values are automatically subtracted by the kindata program available on kinetics soft-pac module. This program also calculates the rate of absorbance change for each cuvette.
Substrate concentration is 10 mM diluted 1:2 in assay yielding final concentration of 5 mM. […] IC50 values are calculated from log-probit analysis

[5] = target: α2-receptor; experiment: 3H-Clonidine Binding: α2-Receptor; design: species or system rat (male Wistar); conditions: 3 nM 3H-clonidine, rat cortical tissue, pH 7.7
Method: See references 1, 2 and 3 cited below. The interaction of a compound with central α2 -receptors is assessed in the ^3 H-clonidine binding assay.
2. Tris buffer containing physiological ions
3. [4-^3 H]-Clonidine hydrochloride (20-30 Ci/mmol) is obtained from New England Nuclear.
4. Clonidine-HCl is obtained from Boehringer Ingelheim. A stock solution of 0.1 mM clonidine is made up to determine nonspecific binding. This yields a final concentration of 1 μM in the assay (20 μl to 2 ml).
Male Wistar rats are sacrificed by decapitation and the cortical tissue rapidly dissected. The tissue is homogenized in 50 volumes of 0.05M Tris buffer, pH 7.7 (buffer 1b) with the Brinkman Polytron, then centrifuged at 40,000 g for 15 minutes. The supernatant is discarded and the pellet re-homogenized in the original volume of 0.05M Tris buffer, pH 7.7 and re-centrifuged as before. The supernate is discarded and the final pellet re-homogenized in 50 volumes of buffer 2b. This tissue suspension is then stored on ice. The final tissue concentration is […]. Specific binding is 1% of the total added ligand and 80% of total bound ligand.
100 μl--0.5M Tris-physiological salts, pH 7.7 (buffer 2a)
20 μl--Vehicle (for total binding) or 0. 1 mM clonidine (for nonspecific binding) or appropriate drug concentration
50 μl--^3 H-clonidine stock
1000 μl tissue suspension
Tissue homogenates are incubated for 20 minutes at […] with 3 nM 3 H-clonidine and varying drug concentrations, and thereafter immediately filtered under reduced pressure on Whatman GF/B filters. The filters are washed with three five ml volumes of ice-cold 0.05M Tris buffer, pH 7.7, and thereafter transferred to scintillation vials. Ten ml of Liquiscint counting solution is added to each sample which is then counted by liquid scintillation spectroscopy. Specific clonidine binding is defined as the difference between total bound and […]. The percent inhibition at each drug concentration is the mean of triplicate determinations.

[6] = system: monoamine oxidase type A and type B; conditions: literature, reference (2); cited from earlier work

With `CNC(=O)Oc1ccc2c(c1)c1c(n2C)C(NC2CC2)CC1` (stereo not shown) [3-(N-Cyclopropyl)amino-4-methyl-1,2,3,4-tetrahydrocyclopent[b]indol-7-yl methylcarbamate] the “% of Animals with Scopolamine Induced Memory Deficit Reversal” value (from here on “% of Animals”) ([1]; 0.63 mg/kg of body weight, s.c., retest at 24 hours) was 27%, the “% of Animals” value ([1]; 2.5 mg/kg of body weight, s.c., retest at 24 hours) was 33% and the IC50 [2] was 0.32 µM. For the same compound, the IC50 [3] was 0.42 µM and the IC50 [4] was 3.5 µM.

Compound `Cn1c2c(c3cc(O)ccc31)CCC2=NCc1ccccc1` [4-methyl-3-phenylmethylimino-1,2,3,4-tetrahydrocyclopent[b]indol-7-ol] has an IC50 [5] of 0.85 µM.

With `CNC(=O)Oc1ccc2c(c1)c1c(n2C)C(NCc2ccccc2)CC1` (stereo not shown) [4-methyl-3-phenylmethylamino-1,2,3,4-tetrahydrocyclopent[b]indol-7-yl methylcarbamate] the IC50 [4] was 1.1 µM and 6.2 µM.

In the case of `CC(C)NNC(=O)c1ccncc1` [iproniazid], the “selectivity for type A / type B monoamine oxidase” value [6] is given as “nonselective inhibitors”.

With `Nc1c2c(nc3ccccc13)CCCC2` [Tacrine, reference compound] the “% of Animals” value ([1]; mouse, in vivo) was 13%.

With `CNC(=O)Oc1ccc2c(c1)c1c(n2C)C(=NC2CC2c2ccccc2)CC1` (stereo not shown) [4-Methyl-3-[(2-phenylcyclopropyl)imino]-1,2,3,4-tetrahydrocyclopent[b]indol-7-yl methylcarbamate] the IC50 [2] was 15.2 µM and the IC50 [3] was 3.7 µM.

With `C#CCNC1CCc2c1[nH]c1ccccc21` (stereo not shown) [1,2,3,4-Tetrahydrocyclopent[b]indol-3-(2-propynyl)amine] the IC50 ([2]; substrate [3H]-5HT, 200 μM, read-out: Inhibitory Concentration - IC50, MAO-A) was 0.29 µM and the IC50 ([3]; substrate [14C]-PEA, 200 μM, read-out: Inhibitory Concentration - IC50, MAO-B) was 0.32 µM.

For `CN(C)CCC=C1c2ccccc2CCc2ccccc21` [Amitriptyline, reference compound], the IC50 [5] was 3.9 µM.

In the case of `C#CCN(C)CCCOc1ccc(Cl)cc1Cl` [Clorgyline], the “selectivity for type A / type B monoamine oxidase” value [6] is listed as “selective inhibitor of the type A enzyme”.

`Cn1c2c(c3ccccc31)CCC2N` (stereo not shown) [4-methyl-1,2,3,4-tetrahydrocyclopent[b]indol-3-amine] gave an IC50 [5] of 1.49 µM.

For `CC[C@@H]1C(=O)OC[C@@H]1Cc1cncn1C` [Pilocarpine, reference compound], the “% of Animals” value ([1]; 5.0 mg/kg of body weight, s.c., retest at 24 hours) was 13%.

For `C#CCN(C)Cc1ccccc1` [pargyline], the “selectivity for type A / type B monoamine oxidase” value [6] is listed as “selective inhibitors of the type B enzyme”.

`NC1CCC2c3ccccc3NC12` (stereo not shown) [1,2,3,3a,4,8b-Hexahydrocyclopent[b]indol-3-amine 2-naphthalene sulfonate hemihydrate] showed an IC50 [5] of 1.27 µM.
